1 molecule from patent EP4537820A1, “COMPOUND AND COMBINATIONS COMPRISING SAID COMPOUND TO IMPROVE IMMUNE RESPONSE” (Institut Gustave-Roussy, priority 2023, dated 2025) can be followed below.

Structures are written as SMILES.

In one experiment the test system is OT-1 CD8+ T cells. The experiment is described as follows: Co-culture of OT-1 cells with treated MCA205-Glob-SL8-intron cells, T cell activation by flow cytometry. It is filed as cell-based, mouse. The protocol: MCA205-Glob-SL8-intron were plated at 1×10^5 cells in 12-well plates and incubated overnight. The next day, cells were treated with different concentrations of drugs for 24 hours. After treatment, cells were harvested with trypsin, washed twice with OT-1 Media (RPMI-1640, 10% FBS, 2mM L-glutamine, 50µM of 2-mercaptoéthanol, 100 IU/mL of Penicillin G, […]), and each condition was counted with a KOVA slide and Trypan-blue. For each tested condition 2×10^5 of treatedcells were plated in a 96-wells plate. The same day, lymph nodes from an OT1 mouse (C57B1/6J TCR-transgenic CD8^+ T cells specific for Kb -OVA257-264, obtained from Charles River #642OT1) were harvested. Lymph nodes were dissociated and filtered through a 40 µm filter and red blood cells were lysed with ACK buffer. 8×10^5 OT-1 cells were added to the MCA205-Glob-SL8-intron cells (E:T ratio of 4:1) and the plate was incubated overnight at 37°C. The next day, translocation to the golgi was blocked with brefeldin A (#420601, Biolegend) for 3h before cells were stained with Zombie Aqua (#423102, Biolegend) and antibodies described in Table 2, to measure T cell activation. Samples were acquired on a Cytek Aurora (Cytek Biosciences) spectral flow cytometer and data was analysed with FlowJo (V10) software (TreeStar, Inc.). Table 2: Panel of antibodies for the study of OT-1 CD8+ T-cells activation by MCA205-Glob-SL8-intron.
In their experiments, OT-1 cells were co-incubated with MCA205 cells expressing the globin-SL8-intron construct. To assess the production of antigenic peptide substrates, they measured OT-1 cell proliferation using FACS analysis. They analyzed the expression levels of early activation markers, CD69 and CD25, which are critical for the proliferation of activated T cells. For that purpose, MCA205 cells with the globin-SL8-intron construct were exposed to varying concentrations of compound 58 for 24 hours, followed by co-incubation with OT-1 cells.
Furthermore, inventors sought to characterize the activated OT-1 cell subset induced by this treatment. To do so, they examined the expression of CD44 and CD62L (L-selectin) markers, which delineate two major subsets of OT-1 CD8+ T cells following co-culture with MCA cells treated with compound 58: effector/memory (CD44^high/CD62L^low) and central memory (CD44^high/CD62L^high) CD8+ T cell subsets.
Inventors then evaluated the effector function of OT-1 cells post-co-culture with MCA cells treated with compound 58 by examining the expression of perforin.
On the technique in general: Flow cytometry measures light scatter and fluorescence of single cells or particles in a stream.

The target in another experiment is T1, 20S-REGγ proteasome (Homo sapiens, UniProt P61289).
T1 construct: made in house
As to the kind of experiment: Proteasome Activity Assay with fluorogenic AMC substrates, in presence of REGγ. Particulars: 0.5nM human 20S + 12.5nM human REGγ. Format: biochemical. The procedure: Proteasome Activity Assay - The activity of the 20S and 20S-REGγ proteasomes was followed by fluorescence using the Bz-VGR-AMC (#BML-BW9375-0005, Enzo Life Sciences) substrate at 50µM for tryspin-like activity, the Suc-LLVY-AMC (#BML-P802-0005, Enzo Life Sciences) substrate at 100µM for the chemotrypsin-like activity and the Z-LLE-AMC (#BML-ZW9345-0005, Enzo Life Sciences) substrate at 100µM for the caspase-like activity. Substrates were incubated with 0,5nM of human 20S ((#E-360-050, Biotechne) and 12,5nM of human REGγ or 2nM of human REGαβ with or without compounds at different concentrations. Purified human REGγ and REGGαβ were generously provided by Julien Marcoux and Marie-Pierre Bousquet-Dubouch. Human REGγ and REGαβ were purified according to Le Feuvre et al., 2009 from plasmids kindly provided by Olivier Coux. The activity assay was performed in 96 well plates in a final volume of 80µL. Plates were read every minute for 90 minutes with a FLUOstar plate reader (BMG Labtech). To detect fluorescence, the excitation wavelength was set to 355nm and emission wavelength at 460nm.
The activity of the 20S and 20S-REGγ proteasomes was followed by fluorescence using the Bz-VGR-AMC (#BML-BW9375-0005, Enzo Life Sciences) substrate at 50µM for trypsin-like activity, the Suc-LLVY-AMC (#BML-P802-0005, Enzo Life Sciences) substrate at 100µM for the chemotrypsin-like activity and the Z-LLE-AMC (#BML-ZW9345-0005, Enzo Life Sciences) substrate at 100µM for the caspase-like activity. […]

Setting [1] is: MCA cells treated 24 hours, then co-culture with OT-1 cells.

T1 sequence (P61289 whole entry): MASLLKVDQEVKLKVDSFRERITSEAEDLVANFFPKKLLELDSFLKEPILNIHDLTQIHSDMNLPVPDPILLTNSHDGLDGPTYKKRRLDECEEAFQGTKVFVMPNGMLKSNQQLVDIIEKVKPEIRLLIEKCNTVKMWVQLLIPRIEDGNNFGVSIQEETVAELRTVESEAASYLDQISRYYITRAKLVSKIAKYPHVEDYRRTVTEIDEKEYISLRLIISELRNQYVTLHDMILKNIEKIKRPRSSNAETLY

In the case of `Cc1ccc(N=Nc2ccc(C)cc2NC(=O)Nc2ccccc2F)cc1` [compound 58], in the experiment with OT-1 CD8+ T cells (MCA205 cells treated 24 hours, then co-incubation with OT-1 cells, compared to untreated cells), the “frequency of CD69+ CD25+ OT-1 T cells” value is “increased frequency”. In the experiment with OT-1 CD8+ T cells (setting [1]), the “frequency of CD44^high/CD62L^low effector/memory cells” value is “dose-dependent increase”, the “frequency of central memory CD44^high/CD62L^high cells” value is “remained unchanged” and the “perforin expression of OT-1 cells” value was “increased perforin expression”. The “concentration at which inhibition of trypsin-like activity starts” value at 20S-REGγ proteasome (Bz-VGR-AMC 50µM, stronger effect at 100 µM) came out at 50 µM. In addition, the “concentration at which chymotrypsin-like activity is inhibited” value on 20S-REGγ proteasome (Suc-LLVY-AMC 100µM, inhibited only at this concentration) is recorded as 100 µM. Moreover, at 20S-REGγ proteasome (Z-LLE-AMC 100µM, stronger effect at 100 µM), the “concentration at which inhibition of caspase-like activity starts” value was 50 µM.
